Assay results published in patent publication US20060194814A1, “Benzamide compounds” (priority 2003, published 2006).
“Also recorded” adds a separate entry of the source. Like-named read-outs stand apart in the source and are kept apart here.

Key:
HIV-1 IIIB strain [1] = assay: HIV-1 IIIB replication in HeLa indicator cells (AV-Finder-HIV assay), no pre-medication; assay type: cell-based; conditions: for efficacy in reducing HIV-1 IIIB replication compared to AZT, ddI or 3TC: human cells
HIV-1 IIIB strain [2] = assay: HIV-1 IIIB replication in HeLa cells, 24 hours pre-medication; assay type: cell-based
HIV-1 IIIB strain [3] = assay: HIV-1 IIIB replication in HeLa cells, 48 hours pre-medication; assay type: cell-based; conditions: 48 hours pretreatment, read-out: IC50 of inhibition of HIV replication
[4] = test system: multi-drug resistant HIV MDR-769 strain; assay: HIV MDR 769 strain replication in HeLa cells, without pre-medication; assay type: cell-based
HeLa cells = assay: MTT cytotoxicity assay after the HIV replication protocol; assay type: cell-based, human; conditions: MTT cytotoxicity assay
[5] = test system: Y1 mouse adrenal tumor cells; assay: dbcAMP-induced 20á-hydroxyprogesterone synthesis in Y1 cells; assay type: cell-based
Experimental: Culture media were then changed and cells were stimulated with 1 mM dbcAMP and the treatment for 24 to 48 hours. […] The synthesis of 20 —OH progesterone and progesterone in Y1 and MA-10 cell media respectively were measured by RIA (Brown et al., 1992). H295R human adrenal tumor cells were seeded in 48-well plates at 10^5 cells/well and incubated for 24 hours. […] At the end of the incubation time period, cells were treated with 1 mM dbcAMP for 48 hours. Cortisol levels in the media were determined by radioimmunoassay as previously described (Amri et al., 1996).

[6] = no pre-medication, concentrations up to 1 μM

Nc1ccn([C@@H]2CS[C@H](CO)O2)c(=O)n1 [3TC]
inhibition of HIV-1 IIIB viral replication reached (HIV-1 IIIB strain [1]; no pre-medication, maximal inhibition reached (maximal concentrations)): 90%

Cc1cn([C@H]2C[C@H](N=[N+]=[N-])[C@@H](CO)O2)c(=O)[nH]c1=O [AZT]
inhibition of the replication (HIV-1 IIIB strain [2]; at 30 pM): < 30%
IC50 (HIV-1 IIIB strain [3]): 30 nM
effect on HIV MDR 769 strain replication [4]: not effective; also recorded: ineffective
IC50 (HeLa cells): 161 µM

CC1CN(C(=O)C(Cc2c[nH]c3ccccc23)NC(=O)c2ccc([N+](=O)[O-])cc2)CCN1C(=O)C1CC1 (stereo not drawn) [SP010, N-[2-(4-cyclopropanecarbonyl-3-methyl-piperazin-1-yl)-1-(1H-indol-3-yl-methyl)-2-oxo-ethyl]-4-nitro-benzamide]
inhibition at 0.01 µM (HIV-1 IIIB strain [1]; Human immunodeficiency virus 1, IIIB, HeLa, no pre-medication, at 0.01 μM, read-out: strongest inhibition of viral replication): 55.6 ± 2.12%
efficacy in reducing HIV-1 IIIB replication compared to AZT, ddI or 3TC (HIV-1 IIIB strain [1]): efficacy higher than AZT, ddI or 3TC
inhibition of viral replication (HIV-1 IIIB strain [1]; [6]): 40%
potency compared to ddI (HIV-1 IIIB strain [1]; [6]): more potent that ddI
efficacy in inhibiting viral replication compared to ddI (HIV-1 IIIB strain [1]; within the range of 1 nM to 1 μM): higher efficacy than ddI
concentration at the peak of the inhibitory activity (HIV-1 IIIB strain [2]): 0.03 nM
IC50 (HIV-1 IIIB strain [3]; Human immunodeficiency virus 1, IIIB, HeLa): 0.01 nM
effect on HIV MDR 769 strain replication [4]: effectively blocked
maximal inhibition of MDR HIV strain replication [4]: 50%
effect on dbcAMP-induced 20á-hydroxyprogesterone production ([5]; Y1 cells): decreased in a dose-dependent manner
potency on cAMP-corticosteroid formation compared to procaine ([5]; even at a concentration as low as 1 μM): as potent as procaine

CCN(CC)CCNC(=O)c1ccc(N)cc1 [SP100, procainamide]
efficacy in reducing HIV-1 IIIB replication compared to AZT, ddI or 3TC (HIV-1 IIIB strain [1]): efficacy higher than AZT, ddI or 3TC
efficacy on viral replication compared to AZT (HIV-1 IIIB strain [2]): effective but at the same extent as AZT
effect on HIV MDR 769 strain replication [4]: effectively blocked

O=c1[nH]cnc2c1ncn2[C@H]1CC[C@@H](CO)O1 [ddI]
strongest inhibition of viral replication (HIV-1 IIIB strain [1]; no pre-medication, at 0.01 μM): 26.37±26.11%
IC50 (HeLa cells): 89 µM
